Test [1] deals with T1, α6β4^L121F (human α6β4 nAChR, L121F in β4) (Homo sapiens, UniProt P30926+Q15825, L142F). The conditions noted are these: L121F vs WT, two-electrode voltage clamp. A general note: Two-electrode voltage clamp holds a large cell at a set potential and records current.
The next test concerns pain. To be noted: mice; cited from earlier work.
For test [2], the target named is T1, α6β4^L121F (human α6β4 nAChR, L121F in β4). Put plainly: cell-based.
Test [3] has as its target human α6β4 nAChR (α6β4^WT) (Homo sapiens, UniProt P30926+Q15825). The test is described as follows: Two-electrode voltage clamp in Xenopus oocytes, wild-type α6β4. It is filed as cell-based. To be noted: times higher affinity than nicotine.
A further test relates to neuropathic pain. To be noted: cited from earlier work.

T1 sequence (Q15825 31-494 limits assumed): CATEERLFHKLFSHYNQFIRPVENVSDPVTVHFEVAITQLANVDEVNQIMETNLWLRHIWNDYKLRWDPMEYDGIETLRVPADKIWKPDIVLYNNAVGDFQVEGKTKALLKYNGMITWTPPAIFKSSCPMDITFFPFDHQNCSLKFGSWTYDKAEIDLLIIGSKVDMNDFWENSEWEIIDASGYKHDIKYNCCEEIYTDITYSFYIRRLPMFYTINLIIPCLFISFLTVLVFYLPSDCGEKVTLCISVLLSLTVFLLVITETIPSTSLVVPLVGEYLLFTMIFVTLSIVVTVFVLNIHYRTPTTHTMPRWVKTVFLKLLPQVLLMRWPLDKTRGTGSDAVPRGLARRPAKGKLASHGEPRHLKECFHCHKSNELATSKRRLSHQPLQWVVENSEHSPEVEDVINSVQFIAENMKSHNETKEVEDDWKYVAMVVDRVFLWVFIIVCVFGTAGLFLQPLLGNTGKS
T1 sequence (P30926 22-498 L142F): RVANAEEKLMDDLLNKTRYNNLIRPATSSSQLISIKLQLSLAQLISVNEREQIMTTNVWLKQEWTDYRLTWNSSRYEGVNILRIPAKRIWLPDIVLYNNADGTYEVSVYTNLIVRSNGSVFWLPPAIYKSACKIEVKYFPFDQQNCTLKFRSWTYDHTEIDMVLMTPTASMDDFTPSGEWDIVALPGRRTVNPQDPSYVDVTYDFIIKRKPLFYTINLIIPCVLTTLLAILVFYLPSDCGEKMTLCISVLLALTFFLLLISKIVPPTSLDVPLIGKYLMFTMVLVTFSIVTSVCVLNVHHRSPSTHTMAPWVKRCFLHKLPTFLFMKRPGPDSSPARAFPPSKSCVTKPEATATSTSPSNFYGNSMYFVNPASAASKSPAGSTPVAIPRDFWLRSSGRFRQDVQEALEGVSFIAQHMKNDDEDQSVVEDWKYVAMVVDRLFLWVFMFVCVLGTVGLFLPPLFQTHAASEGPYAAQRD
human α6β4 nAChR (α6β4^WT), sequence (Q15825 31-494 limits assumed): as the sequence (Q15825 31-494 limits assumed) above
human α6β4 nAChR (α6β4^WT), sequence (P30926 22-498): as the sequence (P30926 22-498 L142F) above, with F121L counted along it

A word on the EC50: it is the midpoint of the concentration-response curve. Read a high EC50 as lower potency in that assay. Regarding `CN1CCC[C@H]1c1cccnc1` [nicotine], the “increase of binding affinity of α6β4 for nicotine by L121F mutation in β4” value in test [1] is reported as “approximately 10 fold”. For the same compound, the analgesic effect result in the test on pain is on record as “effective analgesics”. Further, in test [2], a half-maximal effect (EC50) was put at 2200 ± 400 nM.
Regarding `Clc1ccc(OC[C@H]2CCN2)cn1` [tebanicline, (R)-5-(2-azetidinylmethoxy)-2-chloropyridine], the “affinity for α6β4 relative to nicotine” value in test [3] is listed as “approximately 50 times”. Further, the “analgesic activity against neuropathic pain” value in the test with neuropathic pain is on record as “potent analgesic activity”. The analgesic effect entry with pain is recorded as “effective analgesics”.

Values taken from publication PMC11965388 (Nature Communications, 2025).
